Converted amounts (≈) assume the structure as drawn.
Legend:
chicken sEH (chxEH) = chicken sEH (chxEH) (Gallus gallus, UniProt Q45QT1); assay: chxEH inhibition, fluorescent substrate PHOME; type: biochemical
chxEH [1] = molecular target: T1, chxEH (Gallus gallus, UniProt Q45QT1); assay: kinetic constants of chxEH for epoxy-fatty acid substrate; type: biochemical, chicken; conditions: chxEH's best substrate
chxEH [2] = molecular target: T1, chxEH; assay: FRET-based competitive displacement assay with reporter ligand ACPU
[3] = solubility by turbidity measurement at 600 nm; type: physicochemical; conditions: sodium phosphate buffer, pH 7.4
[4] = substrate of recombinant purified chicken sEH

CCC(=O)N1CCC(NC(=O)Nc2ccc(OC(F)(F)F)cc2)CC1 [TPPU]
inhibition of chxEH (chicken sEH (chxEH); inhibitor 100 nM, chxEH 1.4 nM, primary screen, endpoint mode): 15%

CCC=CCC1OC1CC=CCC=CCC=CCC=CCCC(=O)O (centres unmarked) [16,17-epoxy-docosapentaenoic acid]
Km (chxEH [1]): 12 ± 3 µM | Vmax (chxEH [1]): 728 ± 97 nmol/min/mg

COc1ccc2cc(C(C#N)OC(=O)CC3OC3c3ccccc3)ccc2c1 (centres unmarked) [PHOME, (3-phenyl-oxiranyl)-acetic acid cyano-(6-methoxy-naphthalen-2-yl)-methyl ester]
Km (chicken sEH (chxEH); [4]): 1.5 ± 0.3 µM | Vmax (chicken sEH (chxEH); [4]): 60 ± 4 nmol/min/mg

O=C(NC1CCN(C(=O)Cc2cc(=O)oc3cc(O)ccc23)CC1)NC12CC3CC(CC(C3)C1)C2 [ACPU]
Kd (chxEH [2]): 0.283 nM

O=C(O)CCCCCCCCCCCNC(=O)NC12CC3CC(CC(C3)C1)C2 [AUDA]
IC50 (chicken sEH (chxEH)): 12 nM | solubility [3]: 37.5 to 50 µM (≈ 14.7 to 19.6 µg/mL)
